The target of assay [1] is T1, LXRα LBD (GST) (Homo sapiens, UniProt Q13133).
T1 construct: 5 nM LXRα LBD (GST); 10 nM LXRβ LBD (GST); purchased ThermoFisher Scientific PV4655
T1 sequence (Q13133 209-447 limits assumed): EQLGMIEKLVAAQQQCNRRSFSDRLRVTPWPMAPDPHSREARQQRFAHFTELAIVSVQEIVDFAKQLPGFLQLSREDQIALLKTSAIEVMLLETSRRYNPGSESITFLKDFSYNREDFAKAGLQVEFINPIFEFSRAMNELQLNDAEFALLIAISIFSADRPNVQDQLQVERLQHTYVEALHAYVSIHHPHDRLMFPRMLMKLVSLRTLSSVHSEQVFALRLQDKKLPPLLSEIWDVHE
The experiment in a line: Time-resolved LXR FRET assay (LanthaScreen TR-FRET LXRα Coactivator Assay Kit). Type of assay: biochemical. Particulars: for TR-FRET activity on LXRα, in words: statement made for both isoforms. The procedure:
(§1) The biochemical TR-FRET assays were performed using the LanthaScreen TR-FRET LXRα Coactivator Assay Kit, goat (ThermoFisher Scientific, PV4655), and the LanthaScreen TR-FRET LXRβ assay kit, goat (ThermoFisher Scientific, PV4658), according to the manufacturer’s instructions using the following concentrations: 5 nM LXRα LBD (GST); 10 nM LXRβ LBD (GST); 500 nM fluorescein-TRAP220/DRIP-2; 200 nM fluorescein-D22; 10 nM Tb anti-GST antibody. The TR-FRET signals were measured after 6 h using a TECAN SPARK multimode microplate reader with the following settings: first excitation wavelength: 360 nm (bandwidth 35 nm), first emission wavelength: 485 nm (bandwidth 20 nm); second excitation wavelength: 360 nm (bandwidth 35 nm), second emission wavelength: 535 nm (bandwidth 25 nm); integration time: 200 μs; lag time: 100 μs; settle time: 0 ms.

Assay [2] addresses T2, LXRβ LBD (GST) (Homo sapiens, UniProt P55055).
T2 construct: 5 nM LXRα LBD (GST); 10 nM LXRβ LBD (GST); purchased ThermoFisher Scientific PV4658
T2 sequence (P55055 222-460 limits assumed): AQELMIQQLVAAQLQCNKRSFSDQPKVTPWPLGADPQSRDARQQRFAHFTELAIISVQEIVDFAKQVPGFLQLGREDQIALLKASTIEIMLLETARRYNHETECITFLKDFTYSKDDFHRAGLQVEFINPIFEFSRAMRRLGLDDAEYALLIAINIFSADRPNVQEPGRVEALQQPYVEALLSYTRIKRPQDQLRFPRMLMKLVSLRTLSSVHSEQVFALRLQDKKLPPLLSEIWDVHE
The experiment in a line: Time-resolved LXR FRET assay (LanthaScreen TR-FRET LXRβ assay kit). Type of assay: biochemical. Particulars: for TR-FRET activity on LXRβ, in words: statement made for both isoforms. The method, then: as §1
On the technique in general: In TR-FRET formats the signal depends on donor and acceptor labels being close together.

[3] abbreviates: 5 nM LXRα LBD (GST), read after 6 h, R^2 of fit given, read-out: TR-FRET activity (EC50) LXRα.
The mark [4] stands for this setting: 10 nM LXRβ LBD (GST), read after 6 h, R^2 of fit given, read-out: TR-FRET activity (EC50) LXRβ.
Setting [5] is: supplement list of compounds, LXRα, unit inferred, read-out: FRET activity a.
Where [6] appears, read: supplement list of compounds, (LXRβ), unit inferred, read-out: FRET activity b.

We go through 23 compounds from PMC11997999, “Uncovering α-Selectivity for Liver X Receptor Agonists for Lipotoxic Cancer Therapies” (Journal of Medicinal Chemistry, 2025).

Read-outs that look alike come from different tables or passages of the source.

Turning to `COc1cc(NC2=C(c3ccccc3)C(=O)N(Cc3ccccc3)C2=O)cc(OC)c1` [Compound 39, 1-Benzyl-3-((3,5-dimethoxyphenyl)amino)-4-phenyl-1H-pyrrole-2,5-dione], the EC50 in assay [1] (setting [3]) turned out to be 737 nM; in assay [2] (setting [4]) it was 1320 nM.
For the compound `O=C1C(Nc2ccc3c(c2)OCO3)=C(c2ccccc2)C(=O)N1Cc1ccccc1` [Compound 38, 3-(Benzo[d][1,3]dioxol-5-ylamino)-1-benzyl-4-phenyl-1H-pyrrole-2,5-dione], the EC50 in assay [1] (setting [3]) was determined as 42 nM; in assay [2] (setting [4]), 45 nM.
With `COc1ccc(NC2=C(c3ccccc3)C(=O)N(CC3CC3)C2=O)cc1` [Compound 23, 1-(Cyclopropylmethyl)-3-((4-methoxyphenyl)amino)-4-phenyl-1H-pyrrole-2,5-dione], the values for the EC50 in assay [1] (setting [3]) and in assay [2] (setting [4]) were 342 nM and 163 nM, respectively.
In the case of `COc1ccc(NC2=C(c3ccccc3)C(=O)N(Cc3ccc(F)cc3)C2=O)cc1` [Compound 16, 1-(4-Fluorobenzyl)-3-((4-methoxyphenyl)amino)-4-phenyl-1H-pyrrole-2,5-dione], the EC50 in assay [1] (setting [3]) was 768 nM; in assay [2] (setting [4]), 594 nM.
In the case of `O=C1C(Nc2ccc(CO)cc2)=C(c2ccccc2)C(=O)N1Cc1ccccc1` [Compound 34, 1-Benzyl-3-((4-(hydroxymethyl)phenyl)amino)-4-phenyl-1H-pyrrole-2,5-dione], the figures for the EC50 in assay [1] (setting [3]) and in assay [2] (setting [4]) were 278 nM and 133 nM, respectively.
With `COc1ccc(OC2=C(c3ccccc3)C(=O)N(Cc3ccccc3)C2=O)cc1` [Compound 26, 1-Benzyl-3-(4-methoxyphenoxy)-4-phenyl-1H-pyrrole-2,5-dione], the EC50 in assay [1] (setting [3]) and in assay [2] (setting [4]) was above 3000 nM throughout. Also, the “TR-FRET activity on LXRα, in words” value in assay [1] is “completely lost activity”. Moreover, the “TR-FRET activity on LXRβ, in words” value in assay [2] is on record as “completely lost activity”.
Turning to `CN1CCC(Nc2ccc(NC3=C(c4ccccc4)C(=O)N(Cc4ccccc4)C3=O)cc2)CC1` [Compound 48, 1-Benzyl-3-((4-((1-methylpiperidin-4-yl)amino)phenyl)amino)-4-phenyl-1H-pyrrole-2,5-dione], the results for the EC50 in assay [1] (setting [5]) and in assay [2] (setting [6]) were 786 nM and 150 nM, respectively.
Consider `O=C1NC(=O)C(c2ccccc2)=C1Nc1ccc(N2CCCCC2)cc1` [Compound 52, 3-Phenyl-4-((4-(piperidin-1-yl)phenyl)amino)-1H-pyrrole-2,5-dione], for which the EC50 in assay [1] (setting [3]) and in assay [2] (setting [4]) was above 3000 nM throughout. In addition, the “TR-FRET activity on LXRα, in words” value in assay [1] is listed as “no activity”. In assay [2], the “TR-FRET activity on LXRβ, in words” value is on record as “no activity”.
With `COc1ccc(NC2=C(c3ccccc3)C(=O)N(C(C)(C)C)C2=O)cc1` [Compound 24, 1-(tert-Butyl)-3-((4-methoxyphenyl)amino)-4-phenyl-1H-pyrrole-2,5-dione], the figures for the EC50 in assay [1] (setting [3]) and in assay [2] (setting [4]) were 245 nM and 232 nM, respectively.
`CC(C)(C)OC(=O)NC1CCN(c2ccc(NC3=C(c4ccccc4)C(=O)N(Cc4ccccc4)C3=O)cc2)CC1` [Compound 45, tert-Butyl-(1-(4-((1-benzyl-2,5-dioxo-4-phenyl-2,5-dihydro-1H-pyrrol-3-yl)amino)phenyl)piperidin-4-yl)carbamate]: in assay [1], the “TR-FRET activity on LXRα, in words” value is listed as “abolished all activity”. Further, the EC50 in assay [1] (setting [5]) and in assay [2] (setting [6]) was above 3000 nM in each case. In assay [2], the “TR-FRET activity on LXRβ, in words” value is on record as “abolished all activity”.
With `O=C1C(Nc2ccc(N3CCSCC3)cc2)=C(c2ccccc2)C(=O)N1Cc1ccccc1` [Compound 42, 1-Benzyl-3-phenyl-4-((4-thiomorpholinophenyl)amino)-1H-pyrrole-2,5-dione], the values for the EC50 in assay [1] (setting [3]) and in assay [2] (setting [4]) were 50 nM and 123 nM, respectively.
As to `O=C1C(Nc2ccc(NC3CCNCC3)cc2)=C(c2ccccc2)C(=O)N1Cc1ccccc1` [Compound 47, 1-Benzyl-3-phenyl-4-((4-(piperidin-4-ylamino)phenyl)amino)-1H-pyrrole-2,5-dione], the EC50 in assay [1] (setting [5]) was 618 nM.
Regarding `COc1ccc(NC2=C(c3ccccc3)C(=O)N(Cc3ccncc3)C2=O)cc1` [Compound 21, 3-((4-Methoxyphenyl)amino)-4-phenyl-1-(pyridin-4-ylmethyl)-1H-pyrrole-2,5-dione], the values for the EC50 in assay [1] (setting [3]) and in assay [2] (setting [4]) were 390 nM and 231 nM, respectively.
With `O=C1C(Nc2ccc(N3CCNCC3)cc2)=C(c2ccccc2)C(=O)N1Cc1ccccc1` [Compound 43, 1-Benzyl-3-phenyl-4-((4-(piperazin-1-yl)phenyl)amino)-1H-pyrrole-2,5-dione], the EC50 in assay [1] (setting [3]) came out at 1250 nM; in assay [2] (setting [4]) it was 283 nM.
Regarding `COc1ccc(NC2=C(c3ccccc3)C(=O)N(Cc3ccc(C)cc3)C2=O)cc1` [Compound 17, 3-((4-Methoxyphenyl)amino)-1-(4-methylbenzyl)-4-phenyl-1H-pyrrole-2,5-dione], the EC50 in assay [1] (setting [3]) worked out at 579 nM; in assay [2] (setting [4]) it was 332 nM.
The like results for `O=C1Cc2cc(NC3=C(c4ccccc4)C(=O)N(Cc4ccccc4)C3=O)ccc2N1` [Compound 37, 1-Benzyl-3-((2-oxoindolin-5-yl)amino)-4-phenyl-1H-pyrrole-2,5-dione] were, in that order, 139 nM and 84 nM.
Take `COc1ccc(CN2C(=O)C(Nc3ccc(OC)cc3)=C(c3ccccc3)C2=O)cc1` [Compound 19, 1-(4-Methoxybenzyl)-3-((4-methoxyphenyl)amino)-4-phenyl-1H-pyrrole-2,5-dione]: the values for the EC50 in assay [1] (setting [3]) and in assay [2] (setting [4]) were 518 nM and 592 nM, respectively.
With `Cc1ccc(NC2=C(c3ccccc3)C(=O)N(Cc3ccccc3)C2=O)cc1` [Compound 32, 1-Benzyl-3-phenyl-4-(p-tolylamino)-1H-pyrrole-2,5-dione], the results for the EC50 in assay [1] (setting [3]) and in assay [2] (setting [4]) were 825 nM and 617 nM, respectively.
Regarding `CN(C)c1ccc(NC2=C(c3ccccc3)C(=O)N(Cc3ccccc3)C2=O)cc1` [Compound 35, 1-Benzyl-3-((4-(dimethylamino)phenyl)amino)-4-phenyl-1H-pyrrole-2,5-dione], the results for the EC50 in assay [1] (setting [3]) and in assay [2] (setting [4]) were 71 nM and 91 nM, respectively.
For the compound `O=C(c1ccc(NC2=C(c3ccccc3)C(=O)N(Cc3ccccc3)C2=O)cc1)N1CCCCC1` [Compound 50, 1-Benzyl-3-phenyl-4-((4-(piperidine-1-carbonyl)phenyl)amino)-1H-pyrrole-2,5-dione], the EC50 was determined as 74 nM in assay [1] (setting [5]) and 225 nM in assay [2] (setting [6]).
For the compound `CN1CCN(c2ccc(NC3=C(c4ccccc4)C(=O)N(Cc4ccccc4)C3=O)cc2)CC1` [Compound 44, 1-Benzyl-3-((4-(4-methylpiperazin-1-yl)phenyl)amino)-4-phenyl-1H-pyrrole-2,5-dione], the “TR-FRET activity on LXRα, in words” value in assay [1] was “no relevant activity”. Moreover, the EC50 worked out at 379 nM in assay [1] (setting [5]) and 657 nM in assay [2] (setting [6]). For the same compound, the “TR-FRET activity on LXRβ, in words” value in assay [2] is listed as “no relevant activity”.
For the compound `O=C1C(Nc2ccc(F)cc2)=C(c2ccccc2)C(=O)N1Cc1ccccc1` [Compound 31, 1-Benzyl-3-((4-fluorophenyl)amino)-4-phenyl-1H-pyrrole-2,5-dione], the EC50 in assay [1] (setting [3]) stood at 335 nM; in assay [2] (setting [4]), 548 nM.
The like results for `O=C1C(Nc2ccc(Cl)cc2)=C(c2ccccc2)C(=O)N1Cc1ccccc1` [Compound 30, 1-Benzyl-3-((4-chlorophenyl)amino)-4-phenyl-1H-pyrrole-2,5-dione] were, in that order, 1150 nM and 1180 nM.
